Laboratory results taken from patent US8481716B2 (Wacker Chemie AG, priority 2004, dated 2013).

What was measured:
Format in all cases: physicochemical
[1] = Temperature stability at 25° C.; details: for Content ALA: 25° C.
Procedure: Alpha lipic acid/cyclodextrin complexes were stored in a closed polypropylene container at 25° C.

[2] = Temperature stability at 100° C.
[3] = Temperature stability at 40° C.
[4] = Differential Scanning Calorimetry analysis for uncomplexed alpha-lipoic acid; details: DSC
Procedure: Cyclodextrin complexes (3-6 mg sample size) were analyzed using Differential Scanning Calorimeter (DSC). […] This peak, if present, was compared to a peak at this temperature of pure alpha-lipoic acid to calculate percentage of uncomplexed alpha-lipoic acid in the complex. […] The peak around 60° C. decreases with increasing degree of complexation.

[5] = closed polypropylene container, 0 days of storage, initial content set to 100%

- stability at room temperature ([1]; 25° C. storage): stable at room temperature
- Content ALA ([1]; 39 days of storage): 100%
- Content ALA ([1]; 67 days of storage): 100%
- Content ALA ([1]; 107 days of storage): 100%
- Content ALA [1, 5]: 100%
- Content ALA ([2]; 3 days of storage): 38%
- Content ALA ([2]; 11 days of storage): 13%
- Content ALA ([2]; 28 days of storage): 4%
- Content ALA ([2]; 36 days of storage): 0%
- Content ALA ([2]; closed glass containers, 0 days of storage, initial content set to 100%): 100%
- Content ALA ([3]; 8 days of storage): 99%
- Content ALA ([3]; 39 days of storage): 48*) %
- Content ALA ([3]; 81 days of storage): 41*) %
- Content ALA [3, 5]: 100 ^ %
- Non Complexed ALA ([4]; melting peak around 60° C. compared to pure ALA): 100%
- Complexed ALA ([4]; complexed ALA in product): 0.0%
Compound: O=C(O)CCCCC1CCSS1 (stereo not drawn) [Pure ALA, Alpha-lipoic acid]
